pIC50: −log10 of the molar value. Read-outs that look alike come from different tables or passages of the source. Values belong to the compound of their own block, whether it stands above or below them. Square brackets hold non-standard residues; d marks the D form. Peptide text beside a SMILES is read from it. * marks the point of attachment. pY = N[C@@H](Cc1ccc(OP(=O)(O)O)cc1)C(=O)O; NHPhenethyl = c1ccc(CCN*)cc1
Target: T1, Src SH2 (Homo sapiens, UniProt P12931)
T1 construct: glutathione-S-transferase(GST)-Src SH2 fusion protein
T1 sequence (P12931 151-248 limits assumed): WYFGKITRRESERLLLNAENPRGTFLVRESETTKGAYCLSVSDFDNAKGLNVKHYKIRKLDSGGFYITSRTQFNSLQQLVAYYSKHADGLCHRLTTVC
Experiment: Inhibition of 125I-phosphopeptide binding to immobilized Src SH2
Method: The binding affinities of compounds of the present invention to Src SH2 was determined using a competitive radiolabeled phosphopeptide displacement assay.
Binding was performed at room temperature for 20 minutes while continuously inverting the plate. […] Results are expressed as IC50 values in Table 1 below.

[1] = IC50, SRC SH2 Binding, competitive 125I-phosphopeptide displacement, GST-Src SH2 fusion protein, pH 7.5, room temperature, 20 minutes
[2] = competitive 125I-phosphopeptide displacement, GST-Src SH2 fusion protein, pH 7.5, room temperature, 20 minutes; read-out: IC50, SRC SH2 Binding

Structure (SMILES): CC(=O)N[C@@H](Cc1ccc(OP(=O)(O)O)cc1)C(=O)N[C@@H](CCC(=O)O)C(=O)N[C@@H](C)CC1CCCCC1 [Example 2, 4-[(S)-2-Acetylamino-3-(4-phosphonooxy-phenyl)-(S)-propionylamino]-4-(2-cyclohexyl-(S)-1-methylethylcarbamoyl)-butyric acid]
pIC50 [1]: 5.62

Structure (SMILES): CC(=O)N[C@@H](Cc1ccc(OP(=O)(O)O)cc1)C(=O)N[C@@H](CCC(=O)O)C(=O)NCCCc1ccccc1 [Example 14, [S-(R*,R*)]-4-[2-Acetylamino-3-(4-phosphonooxy-phenyl)-propionylamino]-4-(3-phenyl-propylcarbamoyl)-butyric acid]
pIC50 [2]: 5.00

Structure (SMILES): CCC(C)CCCNC(=O)[C@H](CCC(=O)O)NC(=O)[C@H](Cc1ccc(OP(=O)(O)O)cc1)NC(C)=O (stereo partly drawn) [Example 38, [S-(R*,R*)]-4-[2-Acetylamino-3-(4-phosphonooxy-phenyl)-propionylamino]-4-(4-methyl-hexylcarbamoyl)-butyric acid]
pIC50 [1]: 5.39

Structure (SMILES): NC(=O)c1cc(CNC(=O)c2ccc(OP(=O)(O)O)cc2)ccc1OCc1ccccc1 [Example 39, Phosphoric acid mono-[4-(4-benzyloxy-3-carbamoyl-benzylcarbamoyl)-phenyl] ester]
pIC50 [1]: 5.01

Structure (SMILES): NC(=O)c1cc(CNC(=O)c2ccc(OP(=O)(O)O)cc2)ccc1OCC1CCCCC1 [Example 44, Phosphoric acid mono-[4-(3-carbamoyl-4-cyclohexyl-methoxy-benzylcarbamoyl)-phenyl] ester]
pIC50 [2]: 5.19

Structure (SMILES): CC(=O)N[C@@H](Cc1ccc(OP(=O)(O)O)cc1)C(=O)N[C@@H](CCC(=O)O)C(=O)NCCC12CC3CC(CC(C3)C1)C2 [Example 56, [S-(R*,R*)]-4-[2-Acetylamino-3-(4-phosphonooxy-phenyl)-propionylamino]-4-(2-adamantan-1-yl-ethylcarbamoyl)-butyric acid]
pIC50 [1]: 5.42

Structure (SMILES): CC(=O)N[C@@H](Cc1ccc(OP(=O)(O)O)cc1)C(=O)NCc1ccc(OCC2CCCCC2)c(C(N)=O)c1 [Example 49, (S)-Phosphoric acid mono-{4-[2-acetylamino-2-(3-carbamoyl-4-cyclohexylmethoxy-benzylcarbamoyl)-ethyl]-phenyl} ester]
pIC50 [1]: 5.07

Structure (SMILES): CNC(=O)N[C@@H](Cc1ccc(OP(=O)(O)O)cc1)C(=O)NCc1ccc(OCC2CCCCC2)c(C(N)=O)c1 [Example 52]
pIC50 [1]: 5.21

Structure (SMILES): CNC(=O)N[C@@H](Cc1ccc(OP(=O)(O)O)cc1)C(=O)N[C@@H](CCC(=O)O)C(=O)N(C)CCCC1CCCCC1 [Example 7, [S-(R*,R*)]-4-[(3-Cyclohexyl-propyl)-methyl-carbamoyl]-4-[2-(3-methyl-ureido)-3-(4-phosphonooxy-phenyl)-propionylamino]-butyric acid]
pIC50 [1]: 5.70

Structure (SMILES): CC(=O)N[C@@H](Cc1ccc(OP(=O)(O)O)cc1)C(=O)N[C@@H](C)C(=O)N(CCCC(=O)O)CCCC1CCCCC1 [Example 25, [S-(R*,R*)]-4-[{2-[2-Acetylamino-3-(4-phosphonooxy-phenyl)-propionylamino}-propionyl]-(3-cyclohexylpropyl)-amino]-butyric acid]
pIC50 [1]: 5.15

Structure (SMILES): CC(C)CCCOc1ccc(CNC(=O)c2ccc(OP(=O)(O)O)cc2)cc1C(N)=O [Example 42, Phosphoric acid mono-{4-[3-carbamoyl-4-(4-methyl-pentyloxy)-benzylcarbamoyl]-phenyl} ester]
pIC50 [1]: ~4.52

Structure (SMILES): CCCC[C@H](NC(=O)[C@H](Cc1ccc(OP(=O)(O)O)cc1)NC(C)=O)C(=O)N(C)CCCC1CCCCC1 [Example 9, [S-(R*,R*)]-Phosphoric acid mono-[4-(2-acetylamino-2-{1-[(3-cyclohexyl-propyl)-methyl-carbamoyl]-pentylcarbamoyl}-ethyl)-phenyl] ester]
pIC50 [1]: 5.21

Structure (SMILES): CC(=O)N[C@@H](Cc1ccc(OP(=O)(O)O)cc1)C(=O)N[C@@H](CCC(=O)O)C(=O)N(C)[C@@H](C)Cc1ccccc1 [Example 17, 4-[(S)-2-Acetylamino-3-(4-phosphonooxy-phenyl)-(S)-propionylamino]-4-[methyl-((S)-1-methyl-2-phenylethyl)-carbamoyl]-butyric acid]
pIC50 [1]: 5.49

Structure (SMILES): CCC(C)CCCOc1ccc(CNC(=O)c2ccc(OP(=O)(O)O)cc2)cc1C(N)=O (stereo not drawn) [Example 43, Phosphoric acid mono-{4-[3-carbamoyl-4-(4-methyl-hexyloxy) -benzylcarbamoyl]-phenyl} ester]
pIC50 [1]: ~4.70

Structure (SMILES): Cc1cc(C(=O)NCc2ccc(OCC3CCCCC3)c(C(N)=O)c2)cc(C)c1OP(=O)(O)O [Example 46, Phosphoric acid mono-[4-(3-carbamoyl-4-cyclohexyl-methoxy-benzylcarbamoyl)-2,6-dimethyl-phenyl] ester]
pIC50 [1]: 4.90

pIC50 [2]: ~4.30
Structure (SMILES): NC(=O)c1cc(CNC(=O)c2ccc(C(F)(F)P(=O)(O)O)cc2)ccc1OCC1CCCCC1 [Example 45, [4-(3-Carbamoyl-4-cyclohexylmethoxy-benzylcarbamoyl)-phenyl]-difluoro-methyl-phosphonic acid]

Structure (SMILES): CC(=O)N[C@@H](Cc1ccc(OP(=O)(O)O)cc1)C(=O)N[C@@H](CCC(=O)O)C(=O)NCCc1ccccc1 [Example 16, [S-(R*,R*)]-4-[2-Acetylamino-3-(4-phosphonooxy-phenyl)-propionylamino]-4-phenethylcarbamoyl-butyric acid] (Ac-[pY]-Glu-NHPhenethyl)
pIC50 [1]: 5.01

Structure (SMILES): CC(=O)N[C@@H](Cc1ccc(OP(=O)(O)O)cc1)C(=O)N[C@@H](CCC(=O)O)C(=O)N[C@@H](C)Cc1ccccc1 [Example 18, 4-[(S)-2-Acetylamino-3-(4-phosphonooxy-phenyl)-(S)-propionylamino]-4-((S)-1-methyl-2-phenylethylcarbamoyl)-butyric acid]
pIC50 [1]: 5.48

Structure (SMILES): CC(=O)N[C@@H](Cc1ccc(OP(=O)(O)O)cc1)C(=O)N[C@@H](CCC(=O)O)C(=O)NCCCCC(C)C (relative stereo) [Example 37, [S -(R*,R*)]-4-[2-Acetylamino-3-(4-phosphonooxy-phenyl)-propionylamino]-4-(5-methyl-hexylcarbamoyl)-butyric acid]
pIC50 [1]: 5.17

Structure (SMILES): CCCCN(CCCc1ccccc1)C(=O)[C@H](C)NC(=O)[C@H](Cc1ccc(OP(=O)(O)O)cc1)NC(C)=O [Example 28, [S-(R*,R*)]-Phosphoric acid mono-[4-(2-acetylamino-2-{1-[butyl-(3-phenyl-propyl)-carbamoyl]-ethylcarbamoyl}-ethyl)-phenyl] ester]
pIC50 [1]: 4.92

Structure (SMILES): COc1ccccc1CCNC(=O)[C@H](CCC(=O)O)NC(=O)[C@H](Cc1ccc(OP(=O)(O)O)cc1)NC(C)=O [Example 21, [S-(R*,R*)]4-[2-Acetylamino-3-(4-phosphonooxy-phenyl)-propionylamino]-4-[2-(2-methoxy-phenyl)-ethylcarbamoyl]-butyric acid]
pIC50 (read-out: IC50, SRC SH2 Binding; competitive 125I-phosphopeptide displacement, GST-Src SH2 fusion protein, pH 7.5, room temperature, 20 minutes): 5.26

Structure (SMILES): CC(=O)N[C@@H](Cc1ccc(OP(=O)(O)O)cc1)C(=O)N[C@@H](CCC(=O)O)C(=O)NCCc1ccc(C)cc1 [Example 22, [S-(R*,R*)]-4-[2-Acetylamino-3-(4-phosphonooxy-phenyl)-propionylamino]-4-(2-p-tolyl-ethylcarbamoyl)-butyric acid]
pIC50 [1]: 5.08

Structure (SMILES): CC(=O)N(C)C(Cc1ccc(OP(=O)(O)O)cc1)C(=O)N[C@@H](CCC(=O)O)C(=O)NCCCc1ccccc1 (stereo partly drawn) [Example 32, 4-[(RS)-2-(Acetyl-methyl-amino)-3-(4-phosphonooxy-phenyl)-(S)-propionylamino]-4-(3-phenylpropylcarbamoyl)-butyric acid]
pIC50 [1]: 5.04

Structure (SMILES): COc1ccccc1CCN(C)C(=O)[C@H](CCC(=O)O)NC(=O)[C@H](Cc1ccc(OP(=O)(O)O)cc1)NC(C)=O [Example 23, [S-(R*,R*)]-4-[2-Acetylamino-3-(4-phosphonooxy-phenyl)-propionylamino]-4-{[2-(2-methoxy-phenyl)-ethyl]-methyl-carbamoyl}-butyric acid]
pIC50 [1]: 5.21

Structure (SMILES): CC(=O)N[C@@H](Cc1ccc(OP(=O)(O)O)cc1)C(=O)N[C@@H](CCC(=O)O)C(=O)NCCCc1ccc(OCC(=O)O)cc1 [Example 29, [S-(R*,R*)]-4-[2-Acetylamino-3-(4-phosphonooxy-phenyl)-propionylamino]-4-[3-(4-carboxymethoxy-phenyl)-propylcarbamoyl]-butyric acid]
pIC50 [1]: 5.08

Structure (SMILES): CC(=O)N[C@@H](Cc1ccc(OP(=O)(O)O)cc1)C(=O)NCc1ccc(OCc2cc(C)cc(C)c2)c(C(N)=O)c1 [Example 50, (S)-Phosphoric acid mono-(4-{2-acetylamino-2-[3-carbamoyl-4-(3,5-dimethyl-benzyloxy)-benzylcarbamoyl]-ethyl}-phenyl) ester]
pIC50 [1]: 5.60

Structure (SMILES): CC(=O)N[C@@H](Cc1ccc(OP(=O)(O)O)cc1)C(=O)NCc1ccc(OCC2CCCCC2)c(C(=O)NN)c1 [Example 71, (S)-Phosphoric acid mono-{4-[2-acetylamino-2-(4-cyclohexylmethoxy-3-hydrazinocarbonyl-benzylcarbamoyl)-ethyl]-phenyl} ester]
pIC50 [1]: 4.74

Structure (SMILES): NC(=O)c1cc(CNC(=O)c2ccc(OP(=O)(O)O)c(Cl)c2)ccc1OCC1CCCCC1 [Example 47, Phosphoric acid mono-[4-(3-carbamoyl-4-cyclohexyl-methoxy-benzylcarbamoyl)-2-chloro-phenyl] ester]
pIC50 [1]: ~4.70

Structure (SMILES): CC(=O)N[C@@H](Cc1ccc(OP(=O)(O)O)cc1)C(=O)N[C@@H](CCC(=O)O)C(=O)N(C)CCCc1ccccc1 [Example 19, [S-(R*,R*)]-4-[2-Acetylamino-3-(4-phosphonooxy-phenyl)-propionylamino]-4-[methyl-(3-phenyl-propyl)-carbamoyl]-butyric acid]
pIC50 [1]: 5.25

Structure (SMILES): CC(=O)N[C@@H](Cc1ccc(OP(=O)(O)O)cc1)C(=O)N[C@@H](CCC(=O)O)C(=O)NCCc1cccc2c1CCCC2 [Example 13, [S-(R* ,R*)]-4-[2-Acetylamino-3-(4-phosphonooxy-phenyl)-propionylamino]-4-[2-(5,6,7,8-tetrahydro-naphthalen-1-yl)-ethylcarbamoyl]-butyric acid]
pIC50 [1]: 5.36
